# Results: patent US20050214759A1, “Enzymatic redox labelling of nucleic acids” (priority 2001, published 2005)
# Tests used:
# T7 RNA polymerase = target: T1, T7 RNA polymerase (Escherichia phage T7, UniProt P00573); test: Incorporation of Fc-UTP into RNA in the course of transcription; assay type: biochemical
# T1 construct: purchased USB
# Description: Circular plasmid pT7Mta which contains the promoter for T7 RNA polymerase followed by the gene for aptamer C40 and a T7 terminator sequence was used for transcription. T7 RNA polymerase tends to produce short abortive RNA transcripts when modified nucleotides are incorporated into the first 12 nucleotides of RNA.
# A typical transcription mixture (10 μL) contained 40 mM tris-HCl (pH 8.0), 15 mM MgCl2, 5 mM DTT, 0.05 mg/mL BSA, 1 UOL Rnasin, 0.4 mM NTPs, 10 ug/mL pT7Mta template, and 10U/uL T7 RNA polymerase. In some reaction mixtures, UTP was partially or fully substituted with […] in such a way that the total concentration of UTP and Fc-UTP was still 0.4 mM. Reaction mixtures were incubated at 37° C. for 2 h. Reactions were stopped by addition of 10 μL of gel loading buffer (98% formamide, 10 mM EDTA (pH 8.0), 0.025% bromophenol blue and 0.025% xylene cyanole PF) and heated at 95° C. for 2 min. RNA fragments were separated by 10% PAGE/8 M urea. The gel was stained by SYBR Green II (Sigma) according to manufacturers procedure, and visualised on a Fluorimager (Bio-Rad).
# [1] = Cyclic voltammetry of Fc-NTP; assay type: physicochemical; conditions: vs. Ag/AgCl; 20 mM tris-acetate pH 7.4, 100 mM KCl, 1 mM MgCl2; scan rate 20 mV/s
# Text: Fc-dUTP and Fc-UTP have characteristic absorption spectra which correspond to a superposition of spectra for the modified nucleotide and ferrocene carboxamide constituents. They have a strong absorption in the UV region and a seal, broad peak characteristics of ferrocene near 440 nm. Cyclic voltammetry of Fc-dUTP yields a symmetric peak with E1/2=398 mV vs. Ag/AgCl, consistent with reversible redox reaction of the Fc moiety. The redox potential of Fc-dUTP is 90 mV greater than the potential of ferrocenecarboxylate (310 mV vs. Ag/AgCl) measured in the same buffer (data now shown), reflecting the change of pentadienyl ring substituent (—COO to —CONHR) to one which is more electron-withdrawing. The observed potential is close to that reported for a ferrocene carboxamide moiety attached to the 5′-end of DNA oligonucleotides in aqueous buffer (406-425 mV vs. Ag/AgCl).
# Cyclic voltammograms were recorded with an electrochemical analyser (BAS). The three-electrode system consisted of a glassy carbon working electrode, a Ag/AgCl (saturated KCl) reference electrode (Eref=206 mV) and a platinum counter electrode. Experiments were performed in a 5 ml electrochemical cell containing 0.8 mM Fc-NTP in 20 mM tris-acetate (pH 7.4), 100 mM KCl, and 1 mM MgCl2 at a scan rate of 20 mV/s. The scan range was from −0.1 to +0.8 V (vs. Ag/AgCl). (See FIG. 2).
# T1 sequence (P00573 whole entry): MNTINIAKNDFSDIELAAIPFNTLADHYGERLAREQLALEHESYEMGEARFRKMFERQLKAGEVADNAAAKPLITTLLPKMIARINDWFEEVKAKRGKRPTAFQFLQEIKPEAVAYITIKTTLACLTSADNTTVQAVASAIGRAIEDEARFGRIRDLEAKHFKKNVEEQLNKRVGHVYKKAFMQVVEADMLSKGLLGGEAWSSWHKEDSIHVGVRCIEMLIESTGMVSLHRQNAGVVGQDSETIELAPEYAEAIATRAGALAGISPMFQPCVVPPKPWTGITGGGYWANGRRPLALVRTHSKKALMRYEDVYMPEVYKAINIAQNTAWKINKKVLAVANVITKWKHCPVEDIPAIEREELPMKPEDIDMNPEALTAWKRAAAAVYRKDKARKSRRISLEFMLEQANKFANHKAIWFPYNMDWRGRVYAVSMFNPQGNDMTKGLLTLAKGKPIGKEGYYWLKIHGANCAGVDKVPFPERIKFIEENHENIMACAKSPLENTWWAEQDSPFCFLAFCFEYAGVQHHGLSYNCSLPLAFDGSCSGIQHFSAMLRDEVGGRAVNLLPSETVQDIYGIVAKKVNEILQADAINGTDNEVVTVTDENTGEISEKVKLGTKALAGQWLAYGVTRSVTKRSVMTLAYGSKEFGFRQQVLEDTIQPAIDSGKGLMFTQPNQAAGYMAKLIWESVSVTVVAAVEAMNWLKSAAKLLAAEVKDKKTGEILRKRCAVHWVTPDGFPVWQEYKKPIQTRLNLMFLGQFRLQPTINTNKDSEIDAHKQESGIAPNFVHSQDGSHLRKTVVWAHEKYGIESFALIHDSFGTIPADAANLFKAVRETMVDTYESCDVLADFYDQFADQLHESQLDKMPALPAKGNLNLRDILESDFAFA
Molecule,"amount of RNA product formed (T7 RNA polymerase; substitution of UTP by Fc-UTP, total 0.4 mM)",amount of RNA product formed (T7 RNA polymerase; total absence of UTP (full substitution by Fc-UTP)),E1/2 (redox potential) [1]
"O=C(NCC=Cc1cn([C@@H]2O[C@H](COP(=O)(O)OP(=O)(O)OP(=O)(O)O)[C@@H](O)[C@H]2O)c(=O)[nH]c1=O)[c-]1cccc1.[Fe+2].c1cc[cH-]c1 [Fc-UTP, 5-(3ferrocenecarboxamidopropenyl-1)-uridine-5′-triphosphate]",significant decrease in the amount of RNA product formed,synthesized a significant amount of RNA product,–
ferrocenecarboxylate [reference compound],–,–,310 mV
